Source: US5916920A, “3-substituted Bicyclo[3.1.0]hexane-6-carboxylic acids” (Eli Lilly and Company, priority 1996, dated 1999)
Values belong to the compound of their own block, whether it stands above or below them.

Legend:
[1] = mouse conditioned active avoidance response model; format: in vivo
Text: (Pfeiffer & Jenney, Ann. N.Y. Acad. Sci., 66:[…], 1957; Maffii, J. Pharm. Pharmacol., 11: 129-139, 1959; Cook & Weidley, Ann; N.Y. Acad. Sci., 66: […], 1957; Janke, Handbook of Experimental Pharmacology, Vol. 55/I, New York: Plenum Press, 1978).

[2] = test system: metabotropic glutamate receptors; assay: selective displacement of 1S,3R-ACPD-sensitive [^3 H]glutamate binding to rat brain cell membranes; conditions: crude membranes of rat forebrain
Protocol: The binding of [^3 H]glutamate was conducted with crude membranes of rat forebrain as described by Schoepp and True. Schoepp and True, Neuroscience Lett., 145, 100-104 (1992) and Wright et al., J. Neurochemisty 63: 938-945 (1994).

[3] = mouse elevated plus maze model; format: in vivo

Compound: N[C@@]1(C(=O)O)[C@H](Cc2ccc(F)c(F)c2F)C[C@H]2[C@H](C(=O)O)[C@H]21 (relative stereo) [Example 25, 1SR,2SR,3SR,5RS,6SR-2-Amino-3-((2,3,4-trifluoro)benzyl)bicyclo[3.1.0]hexane-2,6-dicarboxylic acid]
neuroleptic properties in the mouse conditioned active avoidance response model [1]: neuroleptic properties

IC50 [2]: 0.32 µM
Compound: Mixture of 1SR,2SR,3RS,5RS,6SR-2-amino-3-(3-phenylpropyl)bicyclo[3.1.0]-hexane-2,6-dicarboxylic acid and 1SR, 2RS, 3RS, 5RS, 6SR-2-amino-3-(3-phenylpropyl)bicyclo[3.1.0]hexane-2,6-dicarboxylic acid [Example 1]

Compound: Cc1cccc(C[C@@H]2C[C@H]3[C@H](C(=O)O)[C@H]3[C@]2(N)C(=O)O)c1 (relative stereo) [Example 4, 1SR,2SR,3SR,5RS,6SR-Amino-3-((3-methyl)benzyl)bicyclo[3.1.0]hexane-2,6-dicarboxylic acid]
anxiolytic effect in the mouse elevated plus maze model [3]: anxiolytic effect
